Laboratory results taken from patent US8232278B2 (Gilead Sciences, Inc., priority 2005, dated 2012).
Like-named read-outs stand apart in the source and are kept apart here.

Assays:
HCV replicon = experiment: Anti-HCV assay / replicon assay (EC50, luciferase read-out); type: cell-based, hepatitis C virus (HCV); conditions: for CC50/EC50: CC50/EC50 ratio (selectivity index); for EC50: human hepatoma Huh-7 cell line harbouring a HCV replicon, 3 days, luciferase luminescence, read-out: EC50
Description: (§1) The anti-HCV activity of the pyrido[3,2-d]pyrimidine derivatives of this invention was tested in a human hepatoma Huh-7 cell line harbouring a HCV replicon. The assay comprised the following steps:
(§2) Step 1: Compound Preparation and Serial Dilution
(§3) • 1. for water soluble pyrido[3,2-d]pyrimidine derivatives, a volume of 500 μL of solution in cell media (DMEM, 10% FBS, P/S, L-Glutamine) was prepared with a concentration being twice the concentration of the starting final serial dilution concentration. […] The rest of the plate, columns 2-12, was filled with 100 μL of cell media. The plate was then placed on a Precision 2000 Workstation to start the serial dilution. Compounds were diluted three times each step from column 1 to column 10. Column 11 was used as a blank control (no compound added). • 2. for pyrido[3,2-d]pyrimidine derivatives requiring DMSO to dissolve, serial dilution is performed in 50% DMSO in a 384-well plate. A solution containing a compound at 100-fold concentration of the starting final serial dilution concentration was prepared in 50% DMSO and added to the pre-specified wells in column 1 of a polypropylene 384-well plate. The plate was then placed on a Precision 2000 Workstation to start the serial dilution. After the serial dilution, a volume of 2 μL of the solution was transferred from the 384-well plate to a 96-well cell culture plate containing 100 μL of cell media on a Biomek FX Workstation. The DMSO concentration in the final assay condition was 0.5% after cells are added to the plate and the total volume in each well is brought to 200 μL. Step 2: to each well of the serial dilution plate prepared above, 100 μL of cell media containing 6000 suspended Huh-7 HCV replicon cells was added with a Multidrop workstation. The plates were incubated for 3 days at 37° C. with 5% CO2. Step 3: Detection: • a) for the EC50 assay, the media in a 96-well cell culture plate was aspirated with a Biotek EL405 plate-washer. A volume of 200 μL of a solution containing a 1:1 mixture of cell-lysis buffer (Promega, Luciferase Cell Culture Lysis 5× Reagent, cat. #E1531) and luciferase substrate solution (Promega, Luciferase Assay, cat. #E4550) was added to each well of the plate with Multidrop.
(§4) Results in table 7 are expressed by the following data: • the 50% effective concentration (EC50), i.e. the concentration that protects 50% of the cell monolayer from virus-induced cythopathic effect, and • the 50% cytostatic concentration (CC50), i.e. the concentration that results in 50% inhibition of cell growth. Table 7 further indicates the nature of substituents being present in positions 2, 4 and 6 of the pyrido[3,2-d]pyrimidine derivatives of the invention.

Huh-7 HCV replicon cells = experiment: CC50 assay in Huh-7 HCV replicon cells (CellTiter-Glo); type: cell-based, human; conditions: 3 days, 50% cytostatic concentration
Description: as §1, §2, §3, §4

2-amino-4-(phenoxy-ethyl-piperazin-1-yl)-6-(3,4-dimethoxyphenyl)-pyrido[3,2-d]pyrimidine [Example 50]
CC50/EC50 (HCV replicon): 310
EC50 (HCV replicon): 58 nM
CC50 (Huh-7 HCV replicon cells): 18 µM

2-amino-4-[(N-3-chloro-phenyl-carbamoyl)-piperazin-1-yl]-6-(3-fluoro-4-ethoxyphenyl)pyrido-[3,2-d]pyrimidine [Example 171]
CC50/EC50 (HCV replicon): 101
EC50 (HCV replicon): 15 nM
CC50 (Huh-7 HCV replicon cells): 1.5 µM

2-amino-4-[(N-3-chloro-phenyl-carbamoyl)-piperazin-1-yl]-6-(3-methyl-4-methoxy-phenyl)pyrido-[3,2-d]pyrimidine [Example 168]
CC50/EC50 (HCV replicon): 97
EC50 (HCV replicon): 27 nM
CC50 (Huh-7 HCV replicon cells): 2.6 µM

2-amino-4-[N-3-chloro-phenyl-carbamoyl)-piperazin-1-yl]-6-(3,4-(methylenedioxy)phenyl)pyrido[3,2-d]pyrimidine [Example 173]
CC50/EC50 (HCV replicon): 143
EC50 (HCV replicon): 24 nM
CC50 (Huh-7 HCV replicon cells): 3.4 µM

4-[(N-4-chloro-phenylcarbamoyl)-piperazin-1-yl]-6-(3-methyl-4-methoxyphenyl)-pyrido[3,2-d]pyrimidine [Example 121]
CC50/EC50 (HCV replicon): 162
EC50 (HCV replicon): 120 nM
CC50 (Huh-7 HCV replicon cells): 19.4 µM

4-ethoxy-6-(3-fluoro-4-methoxy-phenyl)-pyrido[3,2-d]pyrimidin-2-ylamine [Example 459]
CC50/EC50 (HCV replicon): 78
EC50 (HCV replicon): 320 nM
CC50 (Huh-7 HCV replicon cells): 25.1 µM

4-ethoxy-6-(4-methoxy-phenyl)-pyrido[3,2-d]pyrimidin-2-ylamine [Example 461]
CC50/EC50 (HCV replicon): 93
EC50 (HCV replicon): 270 nM
CC50 (Huh-7 HCV replicon cells): 25.1 µM

COc1ccc(-c2ccc3nc(C)nc(N4CCN(C(=O)Nc5cccc(C)c5)CC4)c3n2)cc1OC [Example 11]
CC50/EC50 (HCV replicon): 98
EC50 (HCV replicon): 75 nM
CC50 (Huh-7 HCV replicon cells): 7.3 µM

COc1ccc(-c2ccc3nc(Cl)nc(N4CCN(C(=O)Nc5cccc(C)c5)CC4)c3n2)cc1OC [Example 14]
CC50/EC50 (HCV replicon): 167
EC50 (HCV replicon): 150 nM
CC50 (Huh-7 HCV replicon cells): 25.1 µM

COc1ccc(-c2ccc3nc(OCCOc4ccccc4)nc(N4CCN(C(=O)Nc5cccc(C)c5)CC4)c3n2)cc1OC [Example 19]
CC50/EC50 (HCV replicon): 52
EC50 (HCV replicon): 480 nM
CC50 (Huh-7 HCV replicon cells): 25.1 µM

COc1ccc(-c2ccc3nc(N)nc(Nc4cccc(C)c4)c3n2)cc1OC [Example 32, 2-amino-4-(3-methyl-anilino)-6-(3,4-dimethoxyphenyl)-pyrido[3,2-d]pyrimidine]
CC50/EC50 (HCV replicon): 195
EC50 (HCV replicon; Hepatitis C virus, 72 h): 258 nM
CC50 (Huh-7 HCV replicon cells): 50.1 µM

COc1ccc(-c2ccc3nc(N)nc(Nc4ccc5c(c4)OCO5)c3n2)cc1OC [Example 33, 2-amino-4-[3,4-(methylenedioxy)aniline]-6-(3,4-dimethoxyphenyl)pyrido[3,2-d]pyrimidine]
CC50/EC50 (HCV replicon): 636
EC50 (HCV replicon): 8 nM
CC50 (Huh-7 HCV replicon cells): 4.8 µM

COc1ccc(-c2ccc3nc(N)nc(NCCN4CCOCC4)c3n2)cc1OC [Example 38, 2-amino-4-[4-(2-aminoethyl)morpholino]-6-(3,4-dimethoxyphenyl)-pyrido[3,2-d]pyrimidine]
CC50/EC50 (HCV replicon): 151
EC50 (HCV replicon): 47 nM
CC50 (Huh-7 HCV replicon cells): 7.1 µM

COc1ccc(-c2ccc3nc(N)nc(N4CCN(c5ccccn5)CC4)c3n2)cc1OC [Example 52, 2-amino-4-(2-pyridyl-piperazin-1-yl)-6-(3,4-dimethoxyphenyl)-pyrido[3,2-d]pyrimidine]
CC50/EC50 (HCV replicon): 72
EC50 (HCV replicon): 42 nM
CC50 (Huh-7 HCV replicon cells): 3 µM

COc1ccc(-c2ccc3nc(N)nc(N4CCN(Cc5ccc6c(c5)OCO6)CC4)c3n2)cc1OC [Example 55, 2-amino-4-(1-piperonyl-piperazin-1-yl)-6-(3,4-dimethoxyphenyl)-pyrido[3,2-d]pyrimidine]
CC50/EC50 (HCV replicon): 74
EC50 (HCV replicon): 340 nM
CC50 (Huh-7 HCV replicon cells): 25.1 µM

COc1ccc(-c2ccc3nc(N)nc(N4CCN(Cc5ccccc5)CC4)c3n2)cc1OC [Example 57, 2-amino-4-(1-benzylpiperazin-1-yl)-6-(3,4-dimethoxyphenyl)-pyrido[3,2-d]pyrimidine]
CC50/EC50 (HCV replicon): 546
EC50 (HCV replicon): 45 nM
CC50 (Huh-7 HCV replicon cells): 24.6 µM

COc1ccc(-c2ccc3nc(N)nc(N4CCN(C(=O)Nc5cccc(Cl)c5)CC4)c3n2)cc1OC [Example 63, 2-amino-4(N-3-chloro-phenyl-carbamoyl-piperazin-1-yl)-6-(3,4-dimethoxyphenyl)-pyrido[3,2-d]pyrimidine]
CC50/EC50 (HCV replicon): 106
EC50 (HCV replicon): 7 nM
CC50 (Huh-7 HCV replicon cells): 0.7 µM

COc1ccc(-c2ccc3nc(N)nc(N4CCN(C(=O)COc5ccccc5)CC4)c3n2)cc1OC [Example 65, 2-amino-4[(N-phenoxy-acetyl)-piperazin-1-yl]-6-(3,4-dimethoxyphenyl)-pyrido[3,2-d]pyrimidine]
CC50/EC50 (HCV replicon): 90
EC50 (HCV replicon): 280 nM
CC50 (Huh-7 HCV replicon cells): 25.1 µM

Cc1ccc(-c2ccc3ncnc(N4CCN(C(=O)Nc5cccc(Cl)c5)CC4)c3n2)cc1C [Example 84]
CC50/EC50 (HCV replicon): 167
EC50 (HCV replicon): 130 nM
CC50 (Huh-7 HCV replicon cells): 21.8 µM

O=C(Nc1cccc(Cl)c1)N1CCN(c2ncnc3ccc(-c4ccc5c(c4)OCO5)nc23)CC1 [Example 85, 4-[(N-3-chlorophenylcarbamoyl)-piperazin-1-yl]-6-(3,4-methylenedioxy)phenyl-pyrido[3,2-d]pyrimidine]
CC50/EC50 (HCV replicon): 64
EC50 (HCV replicon): 19 nM
CC50 (Huh-7 HCV replicon cells): 1.2 µM

CCOc1ccc(-c2ccc3ncnc(N4CCN(C(=O)Nc5cccc(Cl)c5)CC4)c3n2)cc1Cl [Example 86]
CC50/EC50 (HCV replicon): 100
EC50 (HCV replicon): 250 nM
CC50 (Huh-7 HCV replicon cells): 25.1 µM

COc1ccc(-c2ccc3nc(Nc4ccc(C)cc4)nc(N4CCN(C(=O)Nc5cccc(C)c5)CC4)c3n2)cc1OC [Example 94, 2-(p-tolylamino)-4-[(N-3-methylphenylcarbamoyl)-piperazin-1-yl]-6-(3,4-dimethoxy-phenyl)-pyrido[3,2-d]pyrimidine]
CC50/EC50 (HCV replicon): 339
EC50 (HCV replicon): 74 nM
CC50 (Huh-7 HCV replicon cells): 25.1 µM

COc1cc(-c2ccc3nc(N)nc(N4CCN(C(=O)Nc5ccc(F)cc5)CC4)c3n2)ccc1OC(C)C [Example 106, 2-amino-4-[(N-4-fluoro-phenyl-carbamoyl)-piperazin-1-yl]-6-(4-isopropoxy-3-methoxy-phenyl)-pyrido[3,2-d]pyrimidine]
CC50/EC50 (HCV replicon): 102
EC50 (HCV replicon): 35 nM
CC50 (Huh-7 HCV replicon cells): 3.6 µM

COc1cc(-c2ccc3ncnc(N4CCN(C(=O)Nc5cccc(Cl)c5)CC4)c3n2)ccc1OC(C)C [Example 124]
CC50/EC50 (HCV replicon): 71
EC50 (HCV replicon): 35 nM
CC50 (Huh-7 HCV replicon cells): 2.5 µM

Nc1nc(N2CCOCC2)c2nc(-c3ccc4c(c3)OCO4)ccc2n1 [Example 180, 2-amino-4-morpholino-6-(3,4-(methylenedioxy)phenyl)pyrido[3,2-d]pyrimidine]
CC50/EC50 (HCV replicon): 167
EC50 (HCV replicon): 150 nM
CC50 (Huh-7 HCV replicon cells): 25.1 µM

Nc1nc(N2CCN(C(=O)COc3ccc(Cl)cc3)CC2)c2nc(-c3ccc(Cl)c(Cl)c3)ccc2n1 [Example 188, 2-amino-4-[N-(4-chlorophenoxy-acetyl)-piperazin-1-yl]-6-(3,4-dichlorophenyl)-pyrido[3,2-d]pyrimidine]
CC50/EC50 (HCV replicon): 211
EC50 (HCV replicon): 58 nM
CC50 (Huh-7 HCV replicon cells): 12.3 µM

Nc1nc(N2CCN(C(=O)COc3ccc(Cl)cc3)CC2)c2nc(-c3ccc4c(c3)OCCO4)ccc2n1 [Example 189, 2-amino-4-[N-(4-chlorophenoxy-acetyl)-piperazin-1-yl]-6-(1,4-benzodioxane)-pyrido[3,2-d]pyrimidine]
CC50/EC50 (HCV replicon): 50
EC50 (HCV replicon): 9 nM
CC50 (Huh-7 HCV replicon cells): 0.43 µM

Cc1cccc(NC(=O)N2CCN(c3nc(N)nc4ccc(-c5ccc(Cl)c(Cl)c5)nc34)CC2)c1 [Example 191, 2-amino-4-[N-(3-methyl-phenyl-carbamoyl)-piperazin-1-yl]-6-(3,4-dichlorophenyl)-pyrido[3,2-d]pyrimidine]
CC50/EC50 (HCV replicon): 132
EC50 (HCV replicon): 9 nM
CC50 (Huh-7 HCV replicon cells): 1.2 µM

Cc1cccc(NC(=O)N2CCN(c3nc(N)nc4ccc(-c5ccc6c(c5)OCCO6)nc34)CC2)c1 [Example 192, 2-amino-4-[N-(3-methyl-phenyl-carbamoyl)-piperazin-1-yl]-6-(1,4-benzodioxane)-pyrido[3,2-d]pyrimidine]
CC50/EC50 (HCV replicon): 147
EC50 (HCV replicon): 5 nM
CC50 (Huh-7 HCV replicon cells): 0.69 µM
